Legend:
[1] = biological target: ATP-dependent translocase ABCB1 (Homo sapiens, UniProt P08183); assay: Modulation of P-gp (unknown origin) transfected in human MDA435/LCC6MDR cells assessed as reversible of paclitaxel resistance measured as IC50 for paclitaxel at 1 uM after 5 days by CellTiter 96 Aqueous assay relative to PTX alone treated cell; type: cell-based; conditions: 120 h
[2] = Modulation of P-gp (unknown origin) transfected in human MDA435/LCC6MDR cells assessed as reversible of paclitaxel resistance measured as IC50 for paclitaxel at 1 uM after 5 days by CellTiter 96 Aqueous assay
[3] = Cytotoxicity against human LCC-6 cells after 3 days by MTS assay; type: functional, cell-based; conditions: LCC-6, 72 h
[4] = Cytotoxicity against human MDA435/LCC6MDR cells after 3 days by MTS assay; type: functional, cell-based; conditions: 72 h
L929 = assay: Cytotoxicity against mouse L929 cells after 3 days by MTS assay; type: cell-based; conditions: L929, 72 h
[5] = Selectivity index, ratio of IC50 for mouse […] cells to EC50 for modulation of P-gp (unknown origin) transfected in human MDA435/LCC6MDR cells assessed as reversing paclitaxel resistance; set-up: species or system L929

Chain of ATP-dependent translocase ABCB1 (P08183 whole entry): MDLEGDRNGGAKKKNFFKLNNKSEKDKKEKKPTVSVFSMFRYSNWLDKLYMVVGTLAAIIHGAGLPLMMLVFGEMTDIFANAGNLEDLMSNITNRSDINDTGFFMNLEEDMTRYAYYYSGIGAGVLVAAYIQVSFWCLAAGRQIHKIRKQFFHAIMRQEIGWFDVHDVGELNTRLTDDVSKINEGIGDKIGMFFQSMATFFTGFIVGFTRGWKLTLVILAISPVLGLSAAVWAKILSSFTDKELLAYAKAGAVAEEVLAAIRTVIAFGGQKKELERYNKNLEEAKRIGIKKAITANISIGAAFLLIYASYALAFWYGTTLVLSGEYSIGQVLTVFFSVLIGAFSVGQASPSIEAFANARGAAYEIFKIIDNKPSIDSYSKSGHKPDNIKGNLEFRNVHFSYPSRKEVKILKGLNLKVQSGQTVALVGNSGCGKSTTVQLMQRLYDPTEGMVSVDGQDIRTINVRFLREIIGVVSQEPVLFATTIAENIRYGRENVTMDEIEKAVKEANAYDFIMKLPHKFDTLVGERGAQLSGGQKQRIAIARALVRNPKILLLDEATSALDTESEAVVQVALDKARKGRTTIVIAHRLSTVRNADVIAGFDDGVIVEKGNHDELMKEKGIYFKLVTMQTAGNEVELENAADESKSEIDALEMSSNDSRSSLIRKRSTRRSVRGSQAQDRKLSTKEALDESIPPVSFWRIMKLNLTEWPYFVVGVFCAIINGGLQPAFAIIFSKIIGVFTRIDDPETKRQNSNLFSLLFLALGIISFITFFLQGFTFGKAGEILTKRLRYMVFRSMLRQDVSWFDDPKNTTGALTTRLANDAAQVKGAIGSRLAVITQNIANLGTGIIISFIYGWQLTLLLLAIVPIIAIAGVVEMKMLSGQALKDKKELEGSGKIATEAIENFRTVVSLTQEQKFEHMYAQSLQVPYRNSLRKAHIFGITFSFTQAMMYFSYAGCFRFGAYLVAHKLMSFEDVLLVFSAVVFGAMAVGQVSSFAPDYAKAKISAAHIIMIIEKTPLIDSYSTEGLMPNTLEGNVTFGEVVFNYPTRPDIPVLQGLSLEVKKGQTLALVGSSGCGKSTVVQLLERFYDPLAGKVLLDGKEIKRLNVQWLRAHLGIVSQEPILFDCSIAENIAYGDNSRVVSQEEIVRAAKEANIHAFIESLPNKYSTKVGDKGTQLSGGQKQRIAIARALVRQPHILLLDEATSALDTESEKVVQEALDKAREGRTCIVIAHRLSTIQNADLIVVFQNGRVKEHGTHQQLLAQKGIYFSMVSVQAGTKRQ

Structure (SMILES)	Ratio [1]	IC50 [2] [µM]	IC50 [3] [µM]	IC50 [4] [µM]	IC50 (L929) [µM]	Ratio IC50/EC50 [5]
COc1cc(OC)c2c(c1)O[C@H](c1cc(OC)c(OC)c(OC)c1)[C@@H](OC(=O)c1ccc(F)c(NC(=O)/C=C/c3ccc(OC)c(OC)c3)c1)C2=O	10	0.0144				
COc1cc(OC)c2c(c1)O[C@H](c1cc(OC)c(OC)c(OC)c1)[C@@H](O)C2	1.1					
COc1cc(OC)c2c(c1)O[C@H](c1cc(OC)c(OC)c(OC)c1)[C@@H](OC(=O)/C=C/c1ccc(OC)c(OC)c1)C2	12.3	0.0118	> 100	> 100	> 100	
COc1ccc(/C=C/C(=O)O[C@H]2C(=O)c3c(OC)cc(OC)cc3O[C@@H]2c2cc(OC)c(OC)c(OC)c2)cc1	3.6					
COc1cc(OC)c2c(c1)O[C@H](c1cc(OC)c(OC)c(OC)c1)[C@H](OC(=O)c1cccc(F)c1)C2	1.5		> 100	> 100	> 100	
COc1cc(OC)c2c(c1)O[C@H](c1cc(OC)c(OC)c(OC)c1)[C@H](OC(=O)c1cc(OC)c(OC)c(OC)c1)C2	6.9	0.021	> 100	> 100	> 100	
COc1cc(OC)c2c(c1)O[C@H](c1cc(OC)c(OC)c(OC)c1)[C@@H](OC(=O)/C=C/c1cc(OC)c(OC)c(OC)c1)C2			> 100	> 100	> 100	
COc1cc(OC)c2c(c1)O[C@H](c1cc(OC)c(OC)c(OC)c1)[C@@H](OC(=O)c1ccc(F)c(NC(=O)c3ccc(OC)c(OC)c3)c1)C2=O	15.4					
COc1cc(OC)c2c(c1)O[C@H](c1cc(OC)c(OC)c(OC)c1)[C@H](OC(=O)c1ccc(F)c(NC(=O)/C=C/c3cc(OC)c(OC)c(OC)c3)c1)C2	23.3		> 100	> 100	> 100	
COc1cccc(C(=O)O[C@@H]2Cc3c(OC)cc(OC)cc3O[C@@H]2c2cc(OC)c(OC)c(OC)c2)c1	3.2		> 100	> 100	> 100	
COc1cc(OC)c2c(c1)O[C@H](c1cc(OC)c(OC)c(OC)c1)[C@@H](OC(=O)c1ccc(F)c(NC(=O)/C=C/c3ccc(OC)c(OC)c3)c1)C2	21.9		> 100	> 100	> 100	>357
COc1cc(OC)c2c(c1)O[C@H](c1cc(OC)c(OC)c(OC)c1)[C@H](OC(=O)c1ccc(F)c(NC(=O)c3ccc(F)c(NC(=O)c4ccc(OC)c(OC)c4)c3)c1)C2	10.6					
COc1ccc(CC(=O)O[C@@H]2Cc3c(OC)cc(OC)cc3O[C@@H]2c2cc(OC)c(OC)c(OC)c2)cc1	4.2					
COc1ccc(C(=O)O[C@H]2Cc3c(OC)cc(OC)cc3O[C@@H]2c2cc(OC)c(OC)c(OC)c2)cc1	2.2					
C=CCOc1cc(C(=O)O[C@H]2C(=O)c3c(OC)cc(OC)cc3O[C@@H]2c2cc(OC)c(OC)c(OC)c2)cc(OCC=C)c1OCC=C	4.6					
C=CCOc1cc(C(=O)O[C@@H]2Cc3c(OC)cc(OC)cc3O[C@@H]2c2cc(OC)c(OC)c(OC)c2)cc(OCC=C)c1OCC=C	12.1		> 100	> 100	> 100	
COc1cc(OC)c2c(=O)c(OCCOC(=O)/C=C/c3cc(OC)c(OC)c(OC)c3)c(-c3ccc(OC)c(OC)c3)oc2c1	11.2					
COc1cc(OC)c2c(c1)O[C@H](c1cc(OC)c(OC)c(OC)c1)[C@H](OC(=O)c1ccc(F)c(NC(=O)/C=C/c3ccc(OC)c(OC)c3)c1)C2	17.9	0.0081	> 100	> 100	> 100	
COc1ccc(/C=C/C(=O)O[C@H]2Cc3c(OC)cc(OC)cc3O[C@@H]2c2cc(OC)c(OC)c(OC)c2)cc1	7.8					
COc1ccc(C(=O)Nc2cc(C(=O)Nc3cc(C(=O)O[C@@H]4Cc5c(OC)cc(OC)cc5O[C@@H]4c4cc(OC)c(OC)c(OC)c4)ccc3F)ccc2F)cc1	9.2	0.0157				
COc1cc(OC)c2c(c1)O[C@H](c1cc(OC)c(OC)c(OC)c1)[C@@H](OC(=O)/C=C/c1cc(OC)c(OC)c(OC)c1)C2=O	9.1	0.0159				
COc1cc(OC)c2c(c1)O[C@H](c1cc(OC)c(OC)c(OC)c1)[C@H](OC(=O)c1ccc(F)c(NC(C)=O)c1)C2	9.8		> 100	> 100	> 100	
COc1cc(OC)c2c(c1)O[C@H](c1cc(OC)c(OC)c(OC)c1)[C@H](OC(=O)c1ccc(F)cc1)C2	2.7		> 100	> 100	> 100	
COc1ccc(CCC(=O)O[C@@H]2Cc3c(OC)cc(OC)cc3O[C@@H]2c2cc(OC)c(OC)c(OC)c2)cc1	3.6					
COc1ccc(C(=O)OCCOc2c(-c3ccc(OC)c(OC)c3)oc3cc(OC)cc(OC)c3c2=O)cc1	6					

Structure (SMILES)	Ratio [1]	IC50 [2] [µM]	IC50 [3] [µM]	IC50 [4] [µM]	IC50 (L929) [µM]	Ratio IC50/EC50 [5]
COc1cc(OC)c2c(c1)O[C@H](c1cc(OC)c(OC)c(OC)c1)[C@@H](OC(=O)c1ccc(OC)c(OC)c1)C2=O	4					
COc1cc(OC)c2c(c1)O[C@H](c1cc(OC)c(OC)c(OC)c1)[C@@H](OC(=O)c1ccc(F)c(NC(=O)/C=C/c3cc(OC)c(OC)c(OC)c3)c1)C2=O	5.2					
COc1cc(OC)c2c(c1)O[C@H](c1cc(OC)c(OC)c(OC)c1)[C@H](OC(=O)c1ccc(F)c(NC(=O)c3ccc(F)c(NC(=O)c4cc(OC)c(OC)c(OC)c4)c3)c1)C2	10.8					
COc1cc(OC)c2c(c1)O[C@H](c1cc(OC)c(OC)c(OC)c1)[C@H](OC(=O)c1ccc(F)c(N(C)C)c1)C2	4		> 100	> 100	> 100	
COc1cc(O)c2c(=O)c(OC(=O)c3cc(OC)c(OC)c(OC)c3)c(-c3ccc(OC)c(OC)c3)oc2c1	2.1					
CC(=O)Oc1cc(OC(C)=O)c2c(c1)O[C@H](c1cc(OC(C)=O)c(OC(C)=O)c(OC(C)=O)c1)[C@H](OC(=O)c1cc(OC(C)=O)c(OC(C)=O)c(OC(C)=O)c1)C2	0.8		71.5	31.7	41.4	
COc1cc(OC)c2c(c1)O[C@H](c1cc(OC)c(OC)c(OC)c1)[C@@H](OC(=O)c1ccc(F)c(NC(=O)c3cc(OC)c(OC)c(OC)c3)c1)C2=O	4					
COc1cc(OC)c2c(c1)O[C@H](c1cc(OC)c(OC)c(OC)c1)[C@H](OC(=O)/C=C/c1ccc(OC)c(OC)c1)C2	16.6		> 100	> 100	> 100	>638
COc1ccc(/C=C/C(=O)O[C@@H]2Cc3c(OC)cc(OC)cc3O[C@@H]2c2cc(OC)c(OC)c(OC)c2)cc1	6.6		> 100	> 100	> 100	
COc1cc(OC)c2c(c1)O[C@H](c1cc(OC)c(OC)c(OC)c1)[C@@H](OC(=O)c1cc(OC)c(OC)c(OC)c1)C2=O	3.3					
COc1ccc(C(=O)O[C@@H]2Cc3c(OC)cc(OC)cc3O[C@@H]2c2cc(OC)c(OC)c(OC)c2)cc1	1		> 100	> 84	> 100	
COc1cc(OC)c2c(c1)O[C@H](c1cc(OC)c(OC)c(OC)c1)[C@@H](OC(=O)c1ccc(OC)c(OC)c1)C2	12.1					
COc1cc(OC)c2c(c1)O[C@H](c1cc(OC)c(OC)c(OC)c1)[C@@H](OC(=O)c1ccc(F)c(NC(=O)/C=C/c3cc(OC)c(OC)c(OC)c3)c1)C2	34.4	0.0042	> 100	> 100	> 100	>444
COc1cc(OC)c2c(c1)O[C@H](c1cc(OC)c(OC)c(OC)c1)[C@H](OC(=O)c1ccc(OC)c(OC)c1)C2	7.4		> 100	> 100	> 100	
CCOc1cc(C(=O)O[C@@H]2Cc3c(OC)cc(OC)cc3O[C@@H]2c2cc(OC)c(OC)c(OC)c2)cc(OCC)c1OCC	1.3		> 100	> 100	> 100	
CC(=O)O[C@H]1C(=O)[C@@]2(C)[C@H]([C@H](OC(=O)c3ccccc3)[C@]3(O)C[C@H](OC(=O)[C@H](O)[C@@H](NC(=O)c4ccccc4)c4ccccc4)C(C)=C1C3(C)C)[C@]1(OC(C)=O)CO[C@@H]1C[C@@H]2O [PACLITAXEL]			0.0016	0.145		
COc1cc(OC)c2c(c1)O[C@H](c1cc(OC)c(OC)c(OC)c1)[C@H](OC(=O)CCc1cc(OC)c(OC)c(OC)c1)C2	8					
COc1ccc(C(=O)O[C@H]2C(=O)c3c(OC)cc(OC)cc3O[C@@H]2c2cc(OC)c(OC)c(OC)c2)cc1	3					
COc1cc(OC)c2c(c1)O[C@H](c1cc(OC)c(OC)c(OC)c1)[C@@H](OC(C)=O)C2=O	1.4					
COc1cc(OC)c2c(c1)O[C@H](c1cc(OC)c(OC)c(OC)c1)[C@@H](OC(=O)/C=C/c1ccc(OC)c(OC)c1)C2=O	5.5	0.0262				
COc1cc(OC)c2c(c1)O[C@H](c1cc(OC)c(OC)c(OC)c1)[C@H](O)C2	0.9	0.1552	> 100	> 75	> 100	
COc1cc(OC)c2c(c1)O[C@H](c1cc(OC)c(OC)c(OC)c1)[C@H](OC(=O)Cc1cc(OC)c(OC)c(OC)c1)C2	5.8	0.025				
COc1cc(OC)c2c(c1)O[C@H](c1cc(OC)c(OC)c(OC)c1)[C@@H](OC(=O)c1cc(OC)c(OC)c(OC)c1)C2	3					
COc1cc(OC)c2c(c1)O[C@H](c1cc(OC)c(OC)c(OC)c1)[C@H](OC(=O)CCc1ccc(OC)c(OC)c1)C2	7.6					
COc1cc(OC)c2c(c1)O[C@H](c1cc(OC)c(OC)c(OC)c1)[C@H](OC(=O)Cc1ccc(OC)c(OC)c1)C2	4.5					

Reference: ChEMBL document CHEMBL3580553, “Potent and Nontoxic Chemosensitizer of P-Glycoprotein-Mediated Multidrug Resistance in Cancer: Synthesis and Evaluation of Methylated Epigallocatechin, Gallocatechin, and Dihydromyricetin Derivatives” (J Med Chem, 2015)
